{
  "source": "patent US20090312413A1",
  "about": "“Composition Comprising Tanshinone Compounds Isolated From The Extract Of Salviae Miltiorrhizae Radix For Treating Or Preventing Cognitive Dysfunction And The Use Thereof” (DIGITAL BIOTECH CO., LTD., priority 2005, published 2009)",
  "key": {"[1]": {"tested_on": "HT 22 mouse neuronal cell line", "assay": "Inhibition test of beta amyloid toxicity (MTT)", "format": "cell-based", "conditions": "HT22 cells, 25 μM aggregated beta amyloid, 18 hours", "method": "HT 22 mouse neuronal cell line was incubated in DMEM (Dulbecco's Modified Eagle's Medium, Gibco-BRL) medium supplemented with 10% FBS (Fetal Bovine Serum, Hyclone) and 1% penicillin/streptomycin (Sigma Co.) Prior to test, HT22 cell was incubated on 96 well plates with a density of 5×10^3 cell/well and further incubated in serum free DMEM medium for 1 hour before the treatment of test sample. Various concentration of diethyl ether extract prepared in Example 1 used as a test sample was added thereto and incubated for 1 hour. Aggregated beta amyloid (US peptide) was treated thereto to the concentration of 25 μM and incubated for 18 hours to induce cell necrosis. 5 mg/ml of MTT (3-(4,5-dimethyl-2-thiazolyl)-2,5-diphenyl-2H-tetrazolium bromide) solution was added each well with 15 μl/well and the well was incubated for 4 hours. Dissolving buffer solution (10% SDS, 50% dimethyl formamide, pH 4.7) was added to each well with 100 μl/well and reacted for overnight. 18 hours after the reaction, the absorbance of solution was determined by microplate reader (SAFIRE, TECAN) at 570 nm/630 nm wavelength (Gillardon, F. et al., Brain Research, 706(1) pp 169-172, 1996)."}, "[2]": {"tested_on": "mice directly treated with beta amyloid", "assay": "AD acute model, Y maze test", "format": "in vivo, mouse", "conditions": "50 mg/kg oral, mice given beta amyloid intracerebro-ventricularly", "method": "For passive avoidance test, male ICR mouse weighing 25 g purchased from Samtaco Co. was bred with five mice per cage and the cage was kept with following condition maintaining the temperature of 22±2° C. and the relative humidity of […] under the regularly controlled light/dark condition with an interval of 12 hours. Synthetic beta amyloid 1-42 (BACHEM) was dissolved in DMSO in order to be 250 μM solution and diluted with PBS to 10 nM and aggregated at 37° C. for four days (Passive Avoidance test) or six days (Y maze test). Aggregated beta amyloid 1-42 was administrated into the mice according to the procedure disclosed in the literature (Lausen & Belknap, J. Pharmacol. Methods, 16 pp 355-357, 1986). 50 μl of aggregated beta amyloid 1-42 was administrated into the 2.4 mm depth of bregma region with 50 μl of Hamilton micro-syringe equipped with 26-gauge needle. The behavior tests were divided into Y maze test and PA (passive avoidance) test after the beta amyloid administration. […] The entering order of mice in the pathway was observed and the entering latency time was determined when four limbs was entered within the pathway. To determine the spatial memory, the determined spontaneous alteration behavior was calculated by following empirical formula 1 and the actual alteration was assigned to one time at the time that mice was entered three pathways continuously. […]"}, "mouse brain": {"tested_on": "mouse brain", "assay": "Brain staining of AD acute model (Cresyl violet, ChAT, GFAP)", "format": "in vivo", "method": "At the end of the experiment, the brain of animals was delivered and kept in 10% formalin solution to staining. At the end of behavior test, the mouse brain was delivered, kept in 10% formalin solution for 24 hours and transferred to 30% sucrose solution. After fixing the brain, the brain was performed to coronal section with a width of 40 μm using by cryostat. The sliced brain was performed to Cresyl violet staining to confirm the injury of brain neuronal cell, to ChAT staining to confirm the injury of cholinergic neuron and to GFAP staining to confirm the activation of astrocytes. After the tissue was placed on gelatin-coated slide to stain with Cresyl violet, the tissue was performed to dehydration using ethanol. The tissue was incubated for about 3 minutes and dipped into 0.5% Cresyl Violet solution for 30 mins. After the solution was performed to […] with ethanol, the slice was dipped into xylene for 3 minutes. The dried tissue was fixed with Canada balsam mounting medium. In the washing process between all the antibody incubation, PBST was used to washing tissues. To reduce the activity of endogenous peroxidase activity, the tissue was pretreated with 0.5% H2O2 and then treated with 5% FBS at room temperature for 1 hour to remove non-specific binding. The tissue was incubated at 4° C. for overnight using by mouse anti-GFAP (1:200) monoclonal antibody and goat-anti-ChAT (1:200) polyclonal antibody. A horse radish peroxidase-conjugated anti-mouse IgG and anti-goat IgG secondary antibody (1:600) was incubated at room temperature for 1 hour and detected by DAB kit after the incubation."}, "[3]": {"assay": "Oral administration toxicity test", "format": "in vivo", "conditions": "2000 mg/kg"}, "[4]": {"tested_on": "mice administered aggregated beta amyloid 1-42", "assay": "AD acute model, passive avoidance test", "format": "in vivo, mouse", "conditions": "oral, mice given beta amyloid, p<0.05", "method": "For passive avoidance test, male ICR mouse weighing 25 g purchased from Samtaco Co. was bred with five mice per cage and the cage was kept with following condition maintaining the temperature of 22±2° C. and the relative humidity of […] under the regularly controlled light/dark condition with an interval of 12 hours.\nSynthetic beta amyloid 1-42 (BACHEM) was dissolved in DMSO in order to be 250 μM solution and diluted with PBS to 10 nM and aggregated at 37° C. for four days (Passive Avoidance test) or six days (Y maze test).\nAggregated beta amyloid 1-42 was administrated into the mice according to the procedure disclosed in the literature (Lausen & Belknap, J. Pharmacol. Methods, 16 pp 355-357, 1986).\n50 μl of aggregated beta amyloid 1-42 was administrated into the 2.4 mm depth of bregma region with 50 μl of Hamilton micro-syringe equipped with 26-gauge needle. The behavior tests were divided into Y maze test and PA (passive avoidance) test after the beta amyloid administration. Y maze test was performed 2 days after the administration and PA test was 3 days after the administration. Each test was done with more than 10 mice. […]\nAt 24 hours after the training session, the identical experiment was performed again with mouse to measure the latency time staying at the light chamber. […] Latency to enter the dark compartment from the light compartment was measured as a step through latency. […]"}},
  "data": [
    {"smiles": "Cc1cccc2c3c(ccc12)C1=C(C(=O)C3=O)[C@@H](C)CO1", "note": "[dihydrotanshinone I]", "values": [
      {"measurement": "inhibitory effect on the toxicity of beta amyloid", "setting": "[1]", "value": "did not show any inhibitory effect"}
    ]},
    {"smiles": "Cc1coc2c1C(=O)C(=O)c1c-2ccc2c(C)cccc12", "note": "[tanshinone I]", "values": [
      {"measurement": "inhibitory effect on the toxicity of beta amyloid", "setting": "[1]", "value": "did not show any inhibitory effect"}
    ]},
    {"smiles": "CC(C)C1=Cc2ccc3c(c2C(=O)C1=O)C=CCC3(C)C", "note": "[1,2-Didehydromiltirone, 1,2-didehydromiltirone]", "values": [
      {"measurement": "inhibitory effect on the toxicity of beta amyloid", "setting": "[1]", "value": "did not inhibit"}
    ]},
    {"smiles": "Cc1coc2c1C(=O)C(=O)c1c-2ccc2c1CCCC2(C)C", "note": "[tanshinone IIA]", "values": [
      {"measurement": "recovery of memory learning disorder (spontaneous alteration, Y maze)", "setting": "[2]", "value": "recovered"},
      {"measurement": "injury of cholinergic neuron caused by beta amyloid", "setting": "mouse brain; ChAT staining", "value": "recovered the injury of cholinergic neuron"},
      {"measurement": "injury of memory learning correlated with hippocampus injury (brain staining)", "setting": "mouse brain; Cresyl violet staining, mouse brain after beta amyloid", "value": "significantly recovered"},
      {"measurement": "activity of astrocyte caused by beta amyloid", "setting": "mouse brain; GFAP staining", "value": "reduced the increased activity of astrocyte"},
      {"measurement": "toxicity at oral administration test", "setting": "[3]", "value": "no toxicity"},
      {"measurement": "latency time (step through latency, passive avoidance)", "setting": "[4]", "value": "significantly increased"},
      {"measurement": "inhibitory effect on the toxicity of beta amyloid", "setting": "[1]", "value": "mere inhibitory effect"}
    ]},
    {"smiles": "CC(C)C1=Cc2ccc3c(c2C(=O)C1=O)CCCC3(C)C", "note": "[Miltirone]", "values": [
      {"measurement": "inhibitory effect on the toxicity of beta amyloid", "setting": "[1]", "value": "did not inhibit"}
    ]}
  ]
}
